Publication PMC7822874, “Chemoprotective antimalarials identified through quantitative high-throughput screening of Plasmodium blood and liver stage parasites” (Scientific Reports, 2021)
Where two headings read alike, the source gives them in different places.

Tested on: Plasmodium falciparum Dd2 asexual blood stage parasites
Experiment: microbe, parasite or virus in culture
Set-up: species or system Plasmodium falciparum Dd2 in human erythrocytes; single determination (one 11-point concentration-response curve)
Conditions: Plasmodium falciparum, DD2, Erythrocyte, 72 h

Row | Compound | AC50 (read-out: AC50) [µM] | AC50 [µM]
1 | Nc1ccc2oc(-c3ccc4[nH]cnc4c3)nc2c1 [MLS000121646-01] | 13.3 | –
2 | CCC(C)(C)n1nnnc1C(c1cccnc1)N1CCN(c2cccc(C(F)(F)F)c2)CC1 (stereo not shown) [MLS000122548-01] | 6.68 | –
3 | CC(O)CNCCNCc1c(OCc2ccccc2)ccc2ccccc12 (stereo not shown) [MLS000324858-01] | 8.41 | –
4 | COc1cc(Br)c(C(C)NC(=O)c2cccc(Br)c2)cc1OC (stereo not shown) [MLS000325399-01] | 2.11 | –
5 | N#Cc1cc(C#N)c(N2CCN(c3cccc(Cl)n3)CC2)nc1N [MLS000325470-01] | 3.35 | –
6 | COc1cccc(/C(C#N)=C/c2c(-c3ccc(Cl)cc3)nc3c(C)cccn23)c1 [MLS000326878-01] | 5.96 | –
7 | COc1ccc(C)cc1NCc1cc(=O)oc2cc(-c3ccccc3)c(O)cc12 [MLS000331048-01] | 5.31 | –
8 | Cc1cc(C)c(S(=O)(=O)n2ccc(-c3ccc(OCCN(C)c4ccccn4)cc3)n2)c(C)c1 [MLS000331310-01] | 7.5 | –
9 | CC(C)Cn1c(-c2ccco2)nc2c(c(=O)c3ccccc3n2C)c1=O [MLS000331990-01] | 9.44 | –
10 | CCOc1ccc(-n2c(SCC(N)=O)nc3sc4c(c3c2=O)CCN(C)C4)cc1 [MLS000332254-01] | 15 | –
11 | CC12CC3CC(C)(C1)CC(Nc1nc(N4CCOCC4)nc4ccccc14)(C3)C2 [MLS000332322-01] | 9.44 | –
12 | OC(CNC1CCCc2ccccc21)COc1c(Cl)cccc1Cl (stereo not shown) [MLS000334339-01] | 1.68 | –
13 | NC(=O)C1CCN(CC(=O)Nc2cccc(C(=O)Nc3cccc(C(F)(F)F)c3)c2)CC1 [MLS000334956-01] | 6.68 | –
14 | CCOC(=O)c1c(NC(=O)CSc2nc3ccccc3c(=O)n2-c2ccccc2)sc(C(C)=O)c1C [MLS000335169-01] | 13.3 | –
15 | Cc1cccc(CN2CCN(C(=O)CCl)CC2)c1 [MLS000336096-01] | 13.3 | –
16 | CCOc1ccccc1NC(C)C(=O)Nc1cc(C(F)(F)F)ccc1N1CCOCC1 (stereo not shown) [MLS000336343-01] | 2.66 | –
17 | CCN(CC)c1ccc(NC(=O)COc2ccccc2C#N)cc1S(=O)(=O)Nc1ccccc1OC [MLS000339599-01] | 7.5 | –
18 | O=C(NC1=C(Nc2ccc(F)cc2)C(=O)c2ccccc2C1=O)c1ccc(Cl)cc1 [MLS000375026-01] | 0.841 | –
19 | O=C(NC1=C(Nc2ccc(Cl)cc2)C(=O)c2ccccc2C1=O)c1ccccc1 [MLS000375030-01] | 0.473 | –
20 | CCOc1ccc(NC(=O)Nc2cc(OCC(F)(F)F)cc(OCC(F)(F)F)c2)cc1 [MLS000391697-01] | 13.3 | –
21 | CCOc1ccc2c(c1)OC(c1ccc(C)cc1)(C(F)(F)F)NC2=O (stereo not shown) [MLS000392832-01] | 2.66 | –
22 | COc1ccc(S(=O)(=O)N2CCCCCC2)cc1NC(=O)c1c2c(nc3ccccc13)CCN(Cc1ccccc1)C2 [MLS000393062-01] | 4.73 | –

Row | Compound | AC50 (read-out: AC50) [µM] | AC50 [µM]
23 | COc1ccc(NS(=O)(=O)c2cc(NC(=O)/C=C/c3cc(OC)c(OC)c(OC)c3)ccc2N2CCCCC2)cc1 [MLS000394995-01] | 6.68 | –
24 | COCCN(CCOC)c1nc(N)c2c(N)nc3c(c2c1C#N)CC(=O)N3Cc1ccc(Cl)cc1 [MLS000402239-01] | 5.96 | –
25 | O=C(c1cc(C(=O)NCc2ccccc2)c(=O)n(Cc2ccccc2)c1)c1cc(Br)ccc1O [MLS000402314-01] | 4.73 | –
26 | COc1ccc(-c2cc(=O)c3cc(C)ccc3[nH]2)cc1 [MLS000517811-01] | 10.6 | –
27 | O=c1cc(-c2ccccc2)[nH]c2ccc(F)cc12 [MLS000517821-01] | 5.96 | –
28 | CC(=O)c1c(S)nc(-c2ccccc2)nc1N1CCN(C)CC1 [MLS000519428-01] | 5.96 | –
29 | Cc1ccc(C(=O)N/N=C/c2ccc([N+](=O)[O-])s2)cc1 [MLS000519463-01] | 5.96 | –
30 | CCN(CC)c1cc(C)c2cc(NC(=O)c3ccc(Br)o3)ccc2n1 [MLS000519820-01] | 6.68 | –
31 | CCOC(=O)c1cc(C)n(Cc2ccc(OCC)c(OC)c2)c1C [MLS000521227-01] | 10.6 | –
32 | CCOC(=O)c1c(CN2CCCCC2)n(C)c2cc(Br)c(O)cc12 [MLS000523143-01] | 7.5 | –
33 | Cc1cc(C)n(CC(O)COc2ccccc2)n1 (stereo not shown) [MLS000525359-01] | 13.3 | –
34 | O=c1oc2ccccc2c(N2CCCCC2)c1CN1CCCC1 [MLS000525481-01] | 9.44 | –
35 | Cc1ccc2c(c1)c1c3n2CCCN(Cc2ccccc2)C3CCC1 (stereo not shown) [MLS000525489-01] | 4.22 | –
36 | CC(=O)Oc1ccc2ccccc2c1C(NC(=O)C(C)C)c1cccc([N+](=O)[O-])c1 (stereo not shown) [MLS000526079-01] | 16.8 | –
37 | CC(C)(C)n1nnnc1C(c1cccnc1)N(Cc1ccccc1)Cc1ccco1 (stereo not shown) [MLS000528003-01] | 5.31 | –
38 | CC(C)(C)c1ccc(CN(Cc2ccccc2)C(c2ccccn2)c2nnnn2C(C)(C)C)cc1 (stereo not shown) [MLS000529130-01] | 4.73 | –
39 | COc1ccc2[nH]c(C)c(CCN(Cc3cccs3)C(S)=Nc3ccc(F)cc3)c2c1 [MLS000529849-01] | 4.22 | –
40 | Oc1ccc(Cl)cc1CN1CCN(Cc2ccccc2)CC1 [MLS000530315-01] | 0.944 | –
41 | CCN1CCN(Cc2cc(Br)cc(Br)c2O)CC1 [MLS000530316-01] | 7.5 | –
42 | CC(C)(C)n1[nH]c2c3c(ccc2c1=O)C(=O)c1ccccc1C3=O [MLS000530323-01] | 4.73 | –
43 | CCOC(=O)c1c(CN2CCOCC2)n(-c2ccccc2)c2cc(Br)c(O)cc12 [MLS000530556-01] | 2.99 | –
44 | Clc1ccc(NNc2ccnc3cc(Cl)ccc23)cc1 [MLS000537447-01] | 1.5 | –

Row | Compound | AC50 (read-out: AC50) [µM] | AC50 [µM]
45 | O=C(Nc1nc2ccccc2n1Cc1ccccc1)c1ccc(COc2ccccc2[N+](=O)[O-])o1 [MLS000543610-01] | 16.8 | –
46 | COC(=O)c1cc(C(=O)c2ccc(Cl)cc2Cl)cn1C [MLS000546235-01] | 13.3 | –
47 | CN(C)CC1CSCCC1(O)c1ccccc1Cl (stereo not shown) [MLS000546783-01] | 5.96 | –
48 | O=C(Nc1ccsc1C(=O)NC1CCCCC1)c1ccc(F)cc1 [MLS000546987-01] | 6.68 | –
49 | CCc1nn2cc(C(=O)c3cc(C)ccc3O)cnc2c1-c1ccc(F)cc1 [MLS000548735-01] | 9.44 | –
50 | CN1CCCC1CCNS(=O)(=O)c1ccc(Br)cc1 (stereo not shown) [MLS000549971-01] | 5.96 | –
51 | O=c1c2c([nH]c3ccccc13)CCCC2 [MLS000551004-01] | 6.68 | –
52 | CCCC1=[N+](CC(=O)c2ccccc2)CCn2c(C)ccc21 [MLS000551171-01] | 15 | –
53 | Cn1c(SCC(=O)N2c3ccccc3CCc3ccccc32)nnc1-c1cc2ccccc2cc1O [MLS000553503-01] | 8.41 | –
54 | CC1CCc2cc(F)ccc2N1C(=O)CSc1nnc2c(n1)[nH]c1ccc(F)cc12 (stereo not shown) [MLS000556689-01] | 8.41 | –
55 | CCc1ccc2c(c1)cc(CN(/C(S)=N/c1cccc(C)c1)C1CC1)c1nnnn12 [MLS000556704-01] | 3.35 | –
56 | CCc1c(C)c(C#N)c2nc3ccccc3n2c1NCC1CCCO1 (stereo not shown) [MLS000556827-01] | 2.99 | –
57 | C[N+](C)(C)CCN(Cc1ccc(Cl)cc1)c1ccccn1 [MLS000556881-01] | 9.44 | –
58 | CN1C(=O)C2(c3ccccc31)N(C)CC(c1ccccc1)C21SC(=S)N(Cc2ccco2)C1=O (stereo not shown) [MLS000559203-01] | 13.3 | –
59 | O=C(CN(C(=O)c1cccc([N+](=O)[O-])c1)C1CCCCC1)Nc1ccc(Cl)c([N+](=O)[O-])c1 [MLS000560351-01] | – | 13.3
60 | CCCCNC(=O)c1onc(CSc2nc3ccccc3[nH]2)c1C(=O)NCCCC [MLS000561096-01] | 5.31 | –
61 | O=C(NCC1CCCCC1)C12CN(Cc3ccccc3)CC1C(c1cccc([N+](=O)[O-])c1)=NO2 (stereo not shown) [MLS000561441-01] | 6.68 | –
62 | CCCCC(=O)Nc1nc(C)c(-c2csc(Nc3cc(OC)ccc3OC)n2)s1 [MLS000561609-01] | 9.44 | –
63 | Cc1ccnc2nc(C(=O)Nc3cc(Cl)ccc3N3CCOCC3)nn12 [MLS000567033-01] | 4.73 | –
64 | O=C(NC(S)=Nc1ccc(NC(=O)c2cccs2)cc1)c1ccco1 [MLS000567605-01] | 9.44 | –
65 | CCCCn1cc(C(=O)c2cc(Br)ccc2O)cc(C#N)c1=O [MLS000568063-01] | 13.3 | –
66 | CCCc1nc2ccc(NC(=O)c3cccs3)cc2c(=O)n1Cc1ccc(Cl)cc1 [MLS000569177-01] | 8.41 | –

Row | Compound | AC50 (read-out: AC50) [µM] | AC50 [µM]
67 | COc1ccc2c(c1OC)C(=O)N1N=C(c3ccc(O)cc3)CC21 (stereo not shown) [MLS000570475-01] | 16.8 | –
68 | CCOc1nc(N=C(N)N)nc2c(C)cccc12 [MLS000570610-01] | 10.6 | –
69 | O=C(NCC(c1ccco1)N1CCCC1)c1ccc(Cl)cc1 (stereo not shown) [MLS000570686-01] | 8.41 | –
70 | COc1ccccc1N1CCN(Cc2cc(C)c(C)cc2O)CC1 [MLS000571139-01] | 0.376 | –
71 | CC(C)C(=O)NC(c1ccc([N+](=O)[O-])cc1)c1c(O)ccc2ccccc12 (stereo not shown) [MLS000571279-01] | 13.3 | –
72 | COc1ccc(N2CCN(Cc3cc4c(cc3O)CCC4)CC2)cc1 [MLS000572034-01] | 16.8 | –
73 | COc1ccc(C2=C(Nc3ccccc3)c3ccccc3C2=O)cc1 [MLS000572234-01] | 9.44 | –
74 | O=[N+]([O-])c1ccc(N2CCN(/C(S)=N/C3CCCCC3)CC2)cc1 [MLS000574247-01] | 1.88 | –
75 | Cc1ccc(S(=O)(=O)Nc2ccc(-c3cn4ccc(C)cc4n3)cc2)cc1 [MLS000579534-01] | 6.68 | –
76 | COc1ccc(C(C)NC(S)=NC2CCCC2)cc1OC (stereo not shown) [MLS000581238-01] | 6.68 | –
77 | COc1cc([N+](=O)[O-])ccc1NC(=O)Nc1nc2c(s1)CCCC2 [MLS000581295-01] | 6.68 | –
78 | C=CC/N=C(\S)N1CCN(c2ccc([N+](=O)[O-])cc2)CC1 [MLS000581348-01] | 4.22 | –
79 | COC(=O)c1nc2n(n1)C(c1ccc([N+](=O)[O-])cc1)C(C(=O)Nc1ccc(Cl)cc1)=C(C)N2 (stereo not shown) [MLS000582454-01] | 5.31 | –
80 | CCC1=Nc2cc(C(=O)NCc3ccco3)ccc2Sc2ccc(C)cc21 [MLS000583106-01] | 8.41 | –
81 | COc1cc(CN2CC(=O)N(c3ccc(C)c(C)c3)C2=S)cc(OC)c1OC [MLS000583901-01] | 15 | –
82 | OCC[n+]1ccc(/C=C/c2c[nH]c3ccccc23)cc1 [MLS000585200-01] | 2.99 | –
83 | Cc1cccc(Nc2cc(C)c3c(O)cccc3n2)c1C [MLS000586980-01] | 4.73 | –
84 | CCCCn1c(NS(=O)(=O)c2ccccc2)c(C(=O)OCC)c2nc3ccccc3nc21 [MLS000589117-01] | 10.6 | –
85 | Cc1cc(Nc2cccc(Cl)c2)nc(NCc2ccccc2)n1 [MLS000591844-01] | 8.41 | –
